SMILES strings stand for the structures. Read-outs that look alike come from different tables or passages of the source. A value given as a limit tells only on which side of the number the result lay.

One test concerns the target T1, human recombinant CB1 (Homo sapiens, UniProt P21554).
T1 construct: purchased Perkin-Elmer; host or cells: HEK293
As to the kind of experiment: CB1R radioligand binding, membranes from HEK293 cells over-expressing human recombinant CB1. On the procedure: (§1) Flavonoid compounds of general formula (I) above were evaluated for their ability to activate Cannabinoid Receptor 1 (CBLR) and Cannabinoid Receptor 2 (CB2R).
CB1R experiments were performed using membranes from HEK293 cells over-expressing human recombinant CB1, as described by the manufacturer (Perkin-Elmer) and using [3H]CP-55,490 as the radioligand.
(§2) Data of active compounds are expressed in Ki (mM) and are means±SEM of n=3 determinations.
(§3) The values that are stated for each of the compounds is an EC50 value. This is defined as the molar concentration of an agonist, which produces 50% of the maximum possible response for that agonist. The values documented are in micromolar units.

A further test concerns the target T2, human recombinant CB2 (Homo sapiens, UniProt P34972).
T2 construct: purchased Perkin-Elmer; host or cells: HEK293
As to the kind of experiment: CB2R radioligand binding, membranes from HEK293 cells over-expressing human recombinant CB2. How it is done: as §1
CB2R experiments were performed using membranes from HEK293 cells over-expressing human recombinant CB2, as described by the manufacturer (Perkin-Elmer), and using [3H]CP-55,495 as the radioligand.
as §2, §3

T2 sequence (P34972 whole entry): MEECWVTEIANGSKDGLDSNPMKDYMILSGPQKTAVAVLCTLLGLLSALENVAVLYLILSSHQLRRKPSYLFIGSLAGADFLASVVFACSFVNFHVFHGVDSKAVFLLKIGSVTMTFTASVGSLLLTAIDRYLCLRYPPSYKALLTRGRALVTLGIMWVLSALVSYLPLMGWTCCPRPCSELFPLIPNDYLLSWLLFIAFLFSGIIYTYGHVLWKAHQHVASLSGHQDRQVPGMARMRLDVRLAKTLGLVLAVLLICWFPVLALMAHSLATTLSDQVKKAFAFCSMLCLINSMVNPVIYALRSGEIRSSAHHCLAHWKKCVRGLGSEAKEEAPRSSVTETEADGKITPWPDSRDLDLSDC
T1 sequence (P21554 whole entry): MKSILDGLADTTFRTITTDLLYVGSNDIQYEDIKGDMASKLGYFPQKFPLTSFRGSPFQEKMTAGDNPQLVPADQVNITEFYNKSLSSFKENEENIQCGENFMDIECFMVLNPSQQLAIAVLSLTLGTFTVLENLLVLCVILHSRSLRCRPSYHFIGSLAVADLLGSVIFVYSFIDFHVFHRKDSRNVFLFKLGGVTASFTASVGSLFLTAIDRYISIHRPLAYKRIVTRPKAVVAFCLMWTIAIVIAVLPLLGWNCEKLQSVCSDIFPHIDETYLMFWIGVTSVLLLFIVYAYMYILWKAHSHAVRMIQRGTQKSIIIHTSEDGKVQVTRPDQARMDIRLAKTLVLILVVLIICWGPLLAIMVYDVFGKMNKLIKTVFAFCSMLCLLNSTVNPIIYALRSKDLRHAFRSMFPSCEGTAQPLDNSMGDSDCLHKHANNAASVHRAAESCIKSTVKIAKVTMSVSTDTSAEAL

`COc1cc(O)c(CC=C(C)C)c2c1C(=O)C[C@@H](c1ccc(O)cc1)O2` [Example 1, 4′, 7-dihydroxy-5-methoxy-8-prenylflavanone]: the values for the EC50 on human recombinant CB1 and on human recombinant CB2 were 7.5 µM and above 25 µM, respectively.

With `CC(C)=CCc1c(O)cc(O)c2c1O[C@H](c1ccc(O)cc1)CC2=O` [Example 2, 4′,5,7-trihydroxy-8-prenylflavanone], the EC50 on human recombinant CB1 is 4.6 µM; at human recombinant CB2, above 25 µM.

For `O=C1C[C@@H](c2ccccc2)Oc2cc(O)cc(O)c21` [Example 3, 5,7-dihydroxyflavanone], the EC50 at human recombinant CB1 (HEK293 membranes, [3H]CP-55,490 radioligand, means of n=3, read-out: CB1R Activity) was above 25 µM; at human recombinant CB2 (HEK293 membranes, [3H]CP-55,495 radioligand, means of n=3, read-out: CB2R Activity), 15.5 µM.

Consider `COc1cc(O)c2c(c1)O[C@H](c1ccccc1)CC2=O` [Example 4, 5-hydroxy-7-methoxyflavanone], for which, on human recombinant CB1, the EC50 turned out to be 0.8 µM and the “activation of Cannabinoid Receptor 1 (statement in words)” value was “can activate both”. On human recombinant CB2, the EC50 was found to be 9.1 µM and the “activation of Cannabinoid Receptor 2 (statement in words)” value is “can activate both”.

As for `COc1cc(O)c2c(c1)O[C@H](c1ccc(O)cc1)CC2=O` [Example 5, 5,4′-dihydroxy-7-methoxyflavanone], the values for the EC50 on human recombinant CB1 and on human recombinant CB2 were 3.8 µM and above 25 µM, respectively.

The values above are taken from US20080207928A1 (priority 2005, published 2008).
